According to PubChem BioAssay AID248 (DTP/NCI, 2004):
Where “and” joins values, the source holds several entries; their conditions need not be identical. Identical values can stand only once. Toxic doses and inconclusive results are not listed. Rule as the data show it: active = T/C of 150% or more; inactive = T/C below 125%.

Tested on: L1210 leukemia ip in BDF1 mice, survival T/C
Experiment: NCI In Vivo Anticancer Drug Screen. Data for tumor model L1210 Leukemia (intraperitoneal) in B6D2F1 (BDF1) mice
Details: endpoint: mean survival time, higher = longer survival
Outline: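 Mice bearing the transplanted tumor received compound or vehicle. Survival of the treated group was divided by that of the vehicle-treated control group to give the ratio.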

[1] = dose: 100.0 mg/kg/injection, schedule: Q01DX009 (ip), vehicle: Klucel (hydroxypropylcellulose) (HPC)
[2] = dose: 100.0 mg/kg/injection, schedule: Q04DX003 (ip), vehicle: Klucel (hydroxypropylcellulose) (HPC)
[3] = dose: 200.0 mg/kg/injection, schedule: Q01DX009 (ip), vehicle: Klucel (hydroxypropylcellulose) (HPC)
[4] = dose: 200.0 mg/kg/injection, schedule: Q04DX003 (ip), vehicle: Klucel (hydroxypropylcellulose) (HPC)
[5] = dose: 400.0 mg/kg/injection, schedule: Q01DX009 (ip), vehicle: Klucel (hydroxypropylcellulose) (HPC)
[6] = dose: 100.0 mg/kg/injection, schedule: Q04DX003 (ip), vehicle: saline
[7] = dose: 100.0 mg/kg/injection, schedule: Q04DX003 (ip), vehicle: saline with Tween-80
[8] = dose: 200.0 mg/kg/injection, schedule: Q04DX003 (ip), vehicle: saline with Tween-80
[9] = dose: 400.0 mg/kg/injection, schedule: Q04DX003 (ip), vehicle: saline with Tween-80
[10] = dose: 100.0 mg/kg/injection, schedule: Q01DX009 (ip), vehicle: saline
[11] = dose: 200.0 mg/kg/injection, schedule: Q04DX003 (ip), vehicle: saline
[12] = dose: 400.0 mg/kg/injection, schedule: Q01DX009 (ip), vehicle: saline
[13] = dose: 400.0 mg/kg/injection, schedule: Q04DX003 (ip), vehicle: saline
[14] = dose: 100.0 mg/kg/injection, schedule: Q04DX002 (ip), vehicle: Klucel (hydroxypropylcellulose) (HPC)
[15] = dose: 50.0 mg/kg/injection, schedule: Q01DX009 (ip), vehicle: saline
[16] = dose: 200.0 mg/kg/injection, schedule: Q01DX009 (ip), vehicle: saline
[17] = dose: 75.0 mg/kg/injection, schedule: Q01DX001 (ip), vehicle: carboxymethylcellulose (CMC)
[18] = dose: 150.0 mg/kg/injection, schedule: Q01DX001 (ip), vehicle: carboxymethylcellulose (CMC)

Measured: T/C

N#CC(C#N)=Cc1ccc(Cl)c(Cl)c1
inactive: dose: 50.0 mg/kg/injection, schedule: Q01DX001 (ip), vehicle: other 102 % of control | dose: 100.0 mg/kg/injection, schedule: Q01DX001 (ip), vehicle: other 107 % of control | [1] 92 % of control | [2] 96 % of control | dose: 200.0 mg/kg/injection, schedule: Q01DX001 (ip), vehicle: other 107 % of control | [3] 93 % of control | [4] 102 % of control | [5] 86 % of control | dose: 400.0 mg/kg/injection, schedule: Q04DX003 (ip), vehicle: Klucel (hydroxypropylcellulose) (HPC) 95 % of control

O=C1C2C(C(=O)N1c1ccc(O)cc1)C1c3ccccc3C2C2CCCCN21 (stereo not given)
inactive: dose: 12.5 mg/kg/injection, schedule: Q04DX003 (ip), vehicle: saline 102 % of control | dose: 25.0 mg/kg/injection, schedule: Q04DX003 (ip), vehicle: saline 103 % of control | dose: 50.0 mg/kg/injection, schedule: Q04DX003 (ip), vehicle: saline 102 % of control | [6] 100 % of control

C=CCN1/C(=C\C=C\c2ccc3cc(C)ccc3[n+]2CC=C)C=Cc2cc(C)ccc21
inactive: dose: 1.17 mg/kg/injection, schedule: Q01DX001 (ip), vehicle: steriod suspending solution 111 % of control

ClC1=NC(c2ccc(Cl)cc2)N2C1C2c1ccccc1 (stereo not given)
inactive: [7] 92 % of control | [8] 92 % of control | [9] 94 % of control

O=C(CCl)OCCI
inactive: dose: 6.25 mg/kg/injection, schedule: Q01DX009 (ip), vehicle: acetone 97 % of control | dose: 12.5 mg/kg/injection, schedule: Q01DX009 (ip), vehicle: acetone 95 % of control | dose: 25.0 mg/kg/injection, schedule: Q01DX009 (ip), vehicle: acetone 90 % of control | dose: 25.0 mg/kg/injection, schedule: Q04DX003 (ip), vehicle: acetone 99 % of control | dose: 35.0 mg/kg/injection, schedule: Q01DX009 (ip), vehicle: acetone 98 % of control | dose: 55.0 mg/kg/injection, schedule: Q01DX009 (ip), vehicle: acetone 90 % of control | dose: 80.0 mg/kg/injection, schedule: Q01DX009 (ip), vehicle: acetone 97 % of control | dose: 100.0 mg/kg/injection, schedule: Q01DX001 (ip), vehicle: acetone 97 % of control

O=C(COc1ccc(Cl)cc1)Nc1nccs1
inactive: dose: 100.0 mg/kg/injection, schedule: Q01DX009 (ip), vehicle: saline with Tween-80 96 % of control | dose: 200.0 mg/kg/injection, schedule: Q01DX009 (ip), vehicle: saline with Tween-80 89 % of control | dose: 400.0 mg/kg/injection, schedule: Q01DX009 (ip), vehicle: saline with Tween-80 92 % of control

CCOC(=O)C(CCC(=O)O)NC(=O)OCc1ccccc1 (stereo not given)
inactive: dose: 50.0 mg/kg/injection, schedule: Q04DX003 (ip), vehicle: Klucel (hydroxypropylcellulose) (HPC) 94 % of control | [1] 101 % of control | [2] 94 % of control and 100 % of control | [3] 106 % of control | [4] 93 % of control

N#Cc1ccc(Br)cc1[N+](=O)[O-]
inactive: dose: 6.25 mg/kg/injection, schedule: Q01DX009 (ip), vehicle: Klucel (hydroxypropylcellulose) (HPC) 103 % of control | [2] 89 % of control | [4] 86 % of control

CC12CC3(O)CCC1CCC2C(=O)C3 (stereo not given)
inactive: [10] 95 % of control | [6] 93 % of control | [11] 96 % of control | [12] 96 % of control | [13] 105 % of control

NC(=O)CCC(NC(=O)OCc1ccccc1)C(=O)NCC(=O)O (stereo not given)
inactive: dose: 25.0 mg/kg/injection, schedule: Q04DX002 (ip), vehicle: Klucel (hydroxypropylcellulose) (HPC) 95 % of control | dose: 50.0 mg/kg/injection, schedule: Q04DX002 (ip), vehicle: Klucel (hydroxypropylcellulose) (HPC) 92 % of control | [14] 100 % of control

Cc1nccc2c(C)c3sc4ccccc4c3cc12
inactive: dose: 124.0 mg/kg/injection, schedule: Q01DX001 (ip), vehicle: alcohol 96 % of control | dose: 186.0 mg/kg/injection, schedule: Q01DX001 (ip), vehicle: alcohol 110 % of control | dose: 280.0 mg/kg/injection, schedule: Q01DX001 (ip), vehicle: alcohol 117 % of control | dose: 320.0 mg/kg/injection, schedule: Q01DX001 (ip), vehicle: alcohol 109 % of control

CNC(=S)N/N=C/c1cnccn1
inactive: dose: 50.0 mg/kg/injection, schedule: Q01DX001 (ip), vehicle: saline 100 % of control | dose: 100.0 mg/kg/injection, schedule: Q01DX001 (ip), vehicle: saline 100 % of control | dose: 200.0 mg/kg/injection, schedule: Q01DX001 (ip), vehicle: saline 104 % of control

CC1(C)CC[C@]2(C(=O)O)CC[C@]3(C)C(=CC[C@@H]4[C@@]5(C)CC[C@H](O)C(C)(C)[C@@H]5CC[C@]43C)[C@@H]2C1
inactive: [15] 94 % of control | dose: 100.0 mg/kg/injection, schedule: Q01DX001 (sc), vehicle: saline 103 % of control | [10] 94 % of control | dose: 100.0 mg/kg/injection, schedule: Q04DX002 (ip), vehicle: saline 97 % of control | dose: 200.0 mg/kg/injection, schedule: Q01DX001 (sc), vehicle: saline 103 % of control | [16] 97 % of control | dose: 200.0 mg/kg/injection, schedule: Q04DX002 (ip), vehicle: saline 97 % of control | dose: 400.0 mg/kg/injection, schedule: Q01DX001 (sc), vehicle: saline 103 % of control | dose: 400.0 mg/kg/injection, schedule: Q04DX002 (ip), vehicle: saline 94 % of control

COc1ccc(C(O)CN)cc1 (stereo not given)
inactive: [15] 93 % of control | [10] 102 % of control | [6] 105 % of control | [16] 95 % of control and 102 % of control | [11] 103 % of control

O=C1/C(=C/c2ccc(O)c(O)c2)CCc2ccccc21
inactive: dose: 30.0 mg/kg/injection, schedule: Q01DX015 (ip), vehicle: saline 97 % of control | dose: 60.0 mg/kg/injection, schedule: Q01DX015 (ip), vehicle: saline 94 % of control | dose: 120.0 mg/kg/injection, schedule: Q01DX015 (ip), vehicle: saline 94 % of control | dose: 240.0 mg/kg/injection, schedule: Q01DX015 (ip), vehicle: saline 100 % of control

O=C1CSC(=S)N1/N=C/c1c[nH]c2ccc(Br)cc12
inactive: [17] 100 % of control | [18] 97 % of control

CNCc1cccc2ccccc12
inactive: [17] 101 % of control | [18] 101 % of control | dose: 300.0 mg/kg/injection, schedule: Q01DX001 (ip), vehicle: carboxymethylcellulose (CMC) 107 % of control

O=C(COc1ccc(Cl)cc1Cl)OCCCl
inactive: [14] 94 % of control | dose: 200.0 mg/kg/injection, schedule: Q04DX002 (ip), vehicle: Klucel (hydroxypropylcellulose) (HPC) 105 % of control

COc1ccc(Cl)cc1NC(=O)Oc1ccc(NC(C)=O)cc1
inactive: [1] 96 % of control | [3] 102 % of control | [5] 98 % of control

CCCS(=O)[O-].CCCS(=O)[O-].[Zn+2]
inactive: dose: 75.0 mg/kg/injection, schedule: Q01DX001 (ip), vehicle: saline 104 % of control

CC1COCC(C)N1C1=C(Cl)C(=O)c2ccccc2C1=O (stereo not given)
inactive: dose: 12.5 mg/kg/injection, schedule: Q01DX001 (ip), vehicle: carboxymethylcellulose (CMC) 98 % of control | dose: 25.0 mg/kg/injection, schedule: Q01DX001 (ip), vehicle: carboxymethylcellulose (CMC) 98 % of control

CNC(=O)NS(=O)(=O)c1ccc(Cl)cc1
inactive: dose: 100.0 mg/kg/injection, schedule: Q04DX002 (ip), vehicle: saline with Tween-80 97 % of control and 102 % of control | [7] 103 % of control and 105 % of control | dose: 200.0 mg/kg/injection, schedule: Q04DX002 (ip), vehicle: saline with Tween-80 98 % of control and 91 % of control | [8] 94 % of control and 101 % of control | dose: 400.0 mg/kg/injection, schedule: Q04DX002 (ip), vehicle: saline with Tween-80 97 % of control and 98 % of control | [9] 115 % of control and 90 % of control

O=C(O)C1C2CCCCC21 (stereo not given)
inactive: [10] 97 % of control | [6] 102 % of control | [16] 97 % of control | [11] 103 % of control | [12] 90 % of control | [13] 94 % of control

COc1cc2c(c(Oc3ccc(C)cc3)c1)CN(C)CC2
inactive: [6] 98 % of control
